This is an account of results in patent US20230061456A1, “METHODS AND COMPOSITIONS FOR GENERATING TYPE 1 VESTIBULAR HAIR CELLS” (Decibel Therapeutics, Inc., priority 2020, published 2023).

Assay [1] concerns hair cells of embryonic utricles from E15.5 CD1 mice. In words: scRNAseq of cultured embryonic utricles with vitamin A. In kind it is cell-based, mouse. As to conditions: E15.5 CD1 utricles; 0.1 μM; 4 days in culture. On the procedure:
To evaluate the potential for this pathway to modulate type I hair cell fate, we dissected and cultured embryonic utricles from E15.5 CD1 mice in the presence or absence of 0.1 μM vitamin A (retinoic acid precursor). After 4 days in culture the cells were dissociated, and single cells were captured for scRNAseq. Downstream analysis of the scRNAseq data was performed and representative transcripts used to define type I hair cells (Kcna10 and Lpgat1) and type II hair cells (Mgst3 and DIk2) were selected from the data.

The subject of assay [2] is SPP1 (a Type I HC marker) positive cells in cultured utricles. Put plainly: SPP1 induction by vitamin A in cultured embryonic and adult utricles. In kind it is cell-based, mouse. The following applies: 0.1 μM. On the procedure: To further explore these differences of the effect of the retinoic acid pathway on embryonic and adult hair cells, we compared the effects of 0.1 μM vitamin A on cultured utricles from embryonic and adult animals.

Consider vitamin A, for which, in assay [1], the “expression of transcripts typically associated with type I hair cells (Kcna10, Lpgat1)” value was “increased expression” and the “expression of transcripts typically associated with type II hair cells (Mgst3, Dlk2)” value is “decreased expression”. Moreover, the “number of SPP1-positive cells, embryonic tissue” value in assay [2] is listed as “dramatically increased”.
